Results reported in patent US11186607B1, “Pleuromutilin ursodeoxycholic acid ester with antibacterial activity and a method of preparing the same” (Xi'an Taikomed Pharmaceutical Technology Co., Ltd., priority 2020, dated 2021).

What was measured:
Assay type in all cases: cell-based, Staphylococcus aureus
MRSA-596 = assay: paper diffusion drug sensitivity test, MRSA-596; conditions: for Zone of inhibition: MRSA-596, drug sensitive paper 30 μg/tablet, LB plate, 37° C., 24 h; for inhibitory effect (in words): multi-drug resistant Staphylococcus aureus 596, summary of FIGS. 1-3 and Table 1
Protocol: (§1) The antimicrobial efficacy was determined by a paper diffusion drug sensitivity test.
(§2) Experimental strains: multi-resistant Staphylococcus aureus 206, multi-resistant Staphylococcus aureus 575, multi-resistant Staphylococcus aureus 596. The experimental strains were provided by Huashan Hospital Affiliated to Fudan University (Institute of Antibiotic of Fudan University).
(§3) Drug sensitive paper: The drug sensitive paper was a special drug sensitive paper with a diameter of 6.35 mm and a water absorption of 0.02 mL. The control drug was vancomycin (30 μg/tablet); the test drugs were pleuromulin (30 μg/tablet), ursodeoxycholic acid (30 μg/tablet) and pleuromulin ursodeoxycholic acid ester (30 μg/tablet).
(§4) The experimental strains were inoculated in non-selective medium and placed in air at 37° C. for 24 h. Pick a single colony that grows well and inoculate it into broth medium, incubate at 35° C.±2° C. for 6 hours, and use LA broth medium to calibrate the concentration of the bacterial solution to 0.5 Mie turbidimetric tube (1.5×10^8 CFU/mL). A bacterial suspension is obtained.
(§5) Weigh the LB dry powder, sterilize at 103.4 Kpa, 121.3° C. high-pressure steam for 15 min, and then put it in a 40° C.-50° C. water bath. Place a sterile empty plate (inner diameter 9 cm) on the surface of the ultra-clean table water table, shake and shake LB, and then pour the plate. The thickness of each plate is 3 mm to 4 mm. After the plate is cooled at room temperature, store it in the refrigerator at 2° C.-8° C. Use a sterile cotton swab to dip the bacterial solution, and evenly coat the surface of the LB plate 3 times. After inoculation of the bacterial suspension, the LB plate was dried at room temperature for 3 min to 5 min. Use sterile forceps to closely attach the antibacterial drug paper to the dish. Put the dish upside down and place it in a 37° C. incubator for 24 h. Observe the result and measure the diameter. Taking 0.5% DMSO solution as a negative control, the antibacterial activity is expressed by the diameter of the inhibition zone. The inhibition zone ≥17 mm, sensitive; the inhibition zone is 15 mm˜16 mm, intermediary; the inhibition zone ≤14 mm, drug resistance.

MRSA-575 = assay: paper diffusion drug sensitivity test, MRSA-575; conditions: for Zone of inhibition: MRSA-575, drug sensitive paper 30 μg/tablet, LB plate, 37° C., 24 h; for inhibitory effect (in words): multi-drug resistant Staphylococcus aureus 575, summary of FIGS. 1-3 and Table 1
Protocol: as §1, §2, §3, §4, §5

MRSA-171 = assay: paper diffusion drug sensitivity test, MRSA-171; conditions: for Zone of inhibition: MRSA-171, drug sensitive paper 30 μg/tablet, LB plate, 37° C., 24 h; for inhibitory effect (in words): multi-drug resistant Staphylococcus aureus 171, summary of FIGS. 1-3 and Table 1
Protocol: [Worded in the source for another organism; this organism is reported under the same test.] as §1, §2, §3, §4, §5

`C=C[C@]1(C)C[C@@H](OC(=O)COC(=O)CC[C@@H](C)[C@H]2CCC3[C@@H]4[C@@H](O)C[C@@H]5C[C@H](O)CC[C@]5(C)[C@H]4CC[C@@]32C)[C@]2(C)CC[C@@H](C)[C@@]3(CCC(=O)[C@@H]23)[C@@H](C)[C@@H]1O` (stereo partly drawn) [Pleuromulin ursodeoxycholic acid ester, (4R)-2-(((3aS,4R,5S,6S,8R,9R,9aR,12R)-5-hydroxy-4,6,9,12-tetramethyl-1-oxo-6-vinyldecahydro-3a,9-propanocyclopenta[8]annulen-8-yl)oxy)-2-oxoethyl 4-((3R,5 S,7 S, 8R,9 S, 10 S,13R,17R)-3,7-dihydroxy-10,13-dimethylhexadecahydro-1H-cyclopenta[a]phenanthren-17-yl)pentanoate] was tested, and the Zone of inhibition (MRSA-596) was 12 mm, the “inhibitory effect (in words)” value (MRSA-596) was “strong inhibitory effects” and the Zone of inhibition (MRSA-575) was 13 mm. For the same molecule, the Zone of inhibition (MRSA-575; listed as pleuromutilin ursodeoxycholic acid ester) was “up to 13 mm”, the “inhibitory effect (in words)” value (MRSA-575) was “strong inhibitory effects” and the Zone of inhibition (MRSA-171) was 11 mm. The “inhibitory effect (in words)” value (MRSA-171) was “strong inhibitory effects”.

In the case of `C=C[C@]1(C)C[C@@H](OC(=O)CO)[C@]2(C)[C@H](C)CC[C@]3(CCC(=O)[C@H]32)[C@@H](C)[C@@H]1O` [Pleuromulin], the Zone of inhibition (MRSA-596) is reported as 0 mm, the “inhibitory effect (in words)” value (MRSA-596) is reported as “no inhibitory effect” and the Zone of inhibition (MRSA-575) is reported as 0 mm. For the same molecule, the “inhibitory effect (in words)” value (MRSA-575) was “no inhibitory effect”, the Zone of inhibition (MRSA-171) was 0 mm and the “inhibitory effect (in words)” value (MRSA-171) was “no inhibitory effect”.

With `C[C@H](CCC(=O)O)[C@H]1CC[C@H]2[C@@H]3[C@@H](O)C[C@@H]4C[C@H](O)CC[C@]4(C)[C@H]3CC[C@]12C` [Ursodeoxycholic acid] the Zone of inhibition (MRSA-596) was 0 mm, the “inhibitory effect (in words)” value (MRSA-596) was “no inhibitory effect” and the Zone of inhibition (MRSA-575) was 0 mm. For the same molecule, the “inhibitory effect (in words)” value (MRSA-575) was “no inhibitory effect”, the Zone of inhibition (MRSA-171) was 0 mm and the “inhibitory effect (in words)” value (MRSA-171) was “no inhibitory effect”.

For `CN[C@H](CC(C)C)C(=O)N[C@H]1C(=O)N[C@@H](CC(N)=O)C(=O)N[C@H]2C(=O)N[C@H]3C(=O)N[C@H](C(=O)N[C@H](C(=O)O)c4cc(O)cc(O)c4-c4cc3ccc4O)[C@H](O)c3ccc(c(Cl)c3)Oc3cc2cc(c3O[C@@H]2O[C@H](CO)[C@@H](O)[C@H](O)[C@H]2O[C@H]2C[C@](C)(N)[C@H](O)[C@H](C)O2)Oc2ccc(cc2Cl)[C@H]1O` [Vancomycin], the Zone of inhibition (MRSA-596) was 23 mm, the Zone of inhibition (MRSA-575) was 17 mm and the Zone of inhibition (MRSA-171) was 17 mm.
